Patent publication US20240352046A1, “ECTONUCLEOTIDE PYROPHOSPHATASE-PHOSPHODIESTERASE-1 (ENPP1) INHIBITORS AND USES THEREOF” (1cBio, Inc., priority 2020, published 2024)
Like-named read-outs stand apart in the source and are kept apart here.

Experiments:
[1] = system: IFN-β release in differentiated THP-1 cells; test: IFN-β cytokine release assay in THP-1; type: cell-based; settings: Homo sapiens, read-out: EC50 (μM) @ 1 μM of cGAMP; IFN-β release over cGAMP induced release, THP-1, 1 μM cGAMP
Experimental: Percent release of Interferon Beta (IFN-03) was determined in acute monocytic leukemia (THP-1; ATCC® TIB-202™) cell line. THP-1 cells (0.3×10^6 cells/well) were differentiated using phorbol 12-myristate 13-acetate (PMA, 50 ng/mL; Cat #P8139, Sigma) and incubated for 24 h at 37° C., 5% CO2 in an incubator (cell culture conditions) prior to treating with serial dilutions of compounds (3 fold, 5 point dose response starting at […]). After treatment with the compounds cells were further incubated for 2 h under cell culture conditions and then exposed to 2′,3′-cGAMP (c-GAMP, 1 μM; Cat #SML 1229, Sigma). Differentiated THP-1 cells were further cultured for 6 h after which the supernatant was harvested, and ELISA was performed as per the manufacturer's protocol (Human IFN-beta Quantikine ELISA Kit; Cat #DIFNB0, R&D systems). Plates were read in Biotek plate reader by measuring absorbance at 450 nm.

[2] = system: IP-10 release in mouse splenocytes; test: IP-10 in mouse splenocyte assay; type: cell-based, Balb/c mice; settings: activated Balb/c splenocytes, cGAMP 1 μM, 48 hr
Experimental: Percent release of Interferon gamma-induced protein 10 (IP-10) was determined in mouse splenocytes isolated from Balb/c mice. Mouse splenocytes (2.5*10^5 cells/well) were activated with Anti-mouse CD3e (3 μg/ml, coated overnight at 4° C.; Cat #14-0032-82, eBioscience) and then incubated with Anti-mouse CD28 (3 μg/ml soluble; Cat #16-0289-81, eBiosciences) for 24 h at 37° C., 5% CO2 in an incubator (cell culture conditions) prior to treating them with serial dilutions of compounds (3 fold, 6 point dose response starting at 30 μM). After treatment with the compounds cells were further incubated for 2 h under cell culture conditions and then treated with 2′,3′-cGAMP (c-GAMP, 1 μM; Cat #SML 1229, Sigma). Splenocytes were further incubated under cell culture conditions for 48 hr after which the supernatant was harvested, and ELISA was performed as per the manufacturer's protocol (mIP-10 kit; Cat #DY466-05 & DY008, R&D Systems). Plates were read in Biotek plate reader by measuring absorbance at 450 nm.

[3] = system: IFN-β release in mouse splenocytes; test: IFN-β in mouse splenocyte assay; type: cell-based, Balb/c mice; settings: activated Balb/c splenocytes, cGAMP 1 μM, 24 hr
Experimental: Percent release of Interferon Beta (IFN-03) is determined in mouse splenocytes isolated from Balb/c mice. Mouse splenocytes ([…] cells/well) were activated with Anti-mouse CD3e (3 μg/mil, coated overnight at 4° C.; Cat #14-0032-82, eBioscience) and then incubated with Anti-mouse CD28 (3 μg/ml soluble; Cat #16-0289-81, eBiosciences) for 24 h at 37° C., 5% CO2 in an incubator (cell culture conditions) prior to treating them with serial dilutions of compounds (3 fold, 6 point dose response starting at 30 μM). After treatment with the compounds cells are further incubated for 2 h under cell culture conditions and then treated with 2′,3′-cGAMP (c-GAMP, 1 μM; Cat #SML 1229, Sigma). Splenocytes were further incubated under cell culture conditions for 24 hr after which the supernatant was harvested, and ELISA was performed as per the manufacturer's protocol (mIFN-β kit; Cat #MIFNB0 & DY008, R&D Systems). Plates were read in Biotek plate reader by measuring absorbance at 450 nm.

[4] = molecular target: ENPP-1 (Ectonucleotide Pyrophosphatase/Phosphodiesterase 1) (Homo sapiens (Human), UniProt P22413); test: ENPP1 inhibition assay (AMP Glo, cGAMP substrate); type: biochemical; settings: cGAMP 20 μM substrate, ENPP1 1 nM
ENPP-1 (Ectonucleotide Pyrophosphatase/Phosphodiesterase 1), sequence (P22413 whole entry): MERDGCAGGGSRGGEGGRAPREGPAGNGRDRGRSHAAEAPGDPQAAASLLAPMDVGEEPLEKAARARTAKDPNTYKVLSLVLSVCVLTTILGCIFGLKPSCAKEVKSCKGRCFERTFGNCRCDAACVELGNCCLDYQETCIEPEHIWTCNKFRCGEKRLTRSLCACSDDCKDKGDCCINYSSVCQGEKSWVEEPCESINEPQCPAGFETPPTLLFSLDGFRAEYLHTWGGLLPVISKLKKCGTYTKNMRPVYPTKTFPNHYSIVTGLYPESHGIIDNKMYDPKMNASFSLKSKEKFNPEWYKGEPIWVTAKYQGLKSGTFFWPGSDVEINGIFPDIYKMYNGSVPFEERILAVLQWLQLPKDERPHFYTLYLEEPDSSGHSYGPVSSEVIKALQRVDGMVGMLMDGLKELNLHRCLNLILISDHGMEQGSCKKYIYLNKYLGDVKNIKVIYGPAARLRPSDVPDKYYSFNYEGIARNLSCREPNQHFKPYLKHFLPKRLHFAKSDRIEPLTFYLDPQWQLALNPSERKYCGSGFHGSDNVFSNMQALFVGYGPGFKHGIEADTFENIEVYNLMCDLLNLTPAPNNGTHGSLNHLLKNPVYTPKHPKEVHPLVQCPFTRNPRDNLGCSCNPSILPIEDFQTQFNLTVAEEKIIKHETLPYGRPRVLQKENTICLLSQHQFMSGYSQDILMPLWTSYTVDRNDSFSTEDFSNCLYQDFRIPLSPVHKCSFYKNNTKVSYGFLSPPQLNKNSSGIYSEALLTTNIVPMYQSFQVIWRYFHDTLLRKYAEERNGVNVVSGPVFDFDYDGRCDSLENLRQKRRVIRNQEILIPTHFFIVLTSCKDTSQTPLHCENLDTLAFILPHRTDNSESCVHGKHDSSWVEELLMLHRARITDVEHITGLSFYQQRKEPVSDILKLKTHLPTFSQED

[5] = system: IP-10 release in differentiated THP-1 cells; test: IP-10 cytokine release assay in THP-1 cell lines; type: cell-based, Human; settings: for EC50: Homo sapiens, IP-10 release over cGAMP induced release; for Percent release IP-10 (Absolute): differentiated THP-1
Experimental: Percent release of Interferon gamma-induced protein 10 (IP-10) was determined in acute monocytic leukemia (THP-1; ATCC® TIB-202™) cell line. THP-1 cells (0.2×10^6 cells/well) were differentiated using phorbol 12-myristate 13-acetate (PMA, 10 nM (final concentration); Cat #P8139, Sigma) and incubated for 24 h at 37° C., 5% CO2 in an incubator (cell culture conditions) prior to treating with serial dilutions of compounds (3 fold, 6 point dose response starting at 10 μM). After treatment with the compounds cells were further incubated for 2 h under cell culture conditions and then exposed to 2′,3′-cGAMP (c-GAMP, 1 μM (final concentration); Cat #SML 1229, Sigma). Differentiated THP-1 cells were further cultured for 24 h after which the supernatant was harvested, and ELISA was performed as per the manufacturer's protocol (BD optEIA Human IP-10 ELISA Set; Cat #550926 & 550534, BD Biosciences). Plates were read in Biotek plate reader by measuring absorbance at 450 nm.
The release of absolute IP-10 in differentiated THP-1 by compounds in the presence of cGAMP was quantified with reference to standard after subtracting blank (negative) reading from the test readings. The absolute release of IP-10 in the presence of cGAMP (1 μM) is given in the bar-graph (FIG.-1) and in the table-B2a.
The release of IP-10 in differentiated THP-1 by compounds over cGAMP induced release at four different concentrations of cGAMP (1, 5, 10 & 30 μM) was quantified with reference to standard by normalizing the blank (negative) subtracted test readings from average of cGAMP activated cells at that particular concentration. The EC50's was calculated by fitting the curve to the “four-parameter variable slope logistic model” using Prism Graph Pad.

[6] = read-out: EC50 (μM)@ 1 μM of cGAMP, THP-1, 1 μM cGAMP

EC50 [1] [µM]	IC50 [4] [µM]	EC50 [5, 6] [µM]	SMILES	also measured
< 3.35	0.008	0.308	COc1cc2ncnc(N3CC(CCNS(N)(=O)=O)C3)c2cc1OC [Compound 1.1, (2-(1-(6,7-dimethoxyquinazolin-4-yl)azetidin-3-yl)ethyl)aminisulfonamide]	IC50 [2]: 1720 nM; IC50 [3]: 3090 nM; EC50 ([5]; read-out: EC50 (μM)@ 10 μM of cGAMP, THP-1, 10 μM cGAMP): 0.471 µM; EC50 ([5]; read-out: EC50 (μM)@ 30 μM of cGAMP, THP-1, 30 μM cGAMP): 0.624 µM; EC50 ([5]; THP-1, 5 μM cGAMP, read-out: EC50 (μM)@ 5 μM of cGAMP): < 0.12 µM; Percent release IP-10 (Absolute) ([5]; cGAMP (1 μM) + compound 0.37 μM): 8.9%; Percent release IP-10 (Absolute) ([5]; cGAMP (1 μM) + compound 1.11 μM): 11.4%; Percent release IP-10 (Absolute) ([5]; cGAMP (1 μM) + compound 3.33 μM): 13.1%; Percent release IP-10 (Absolute) ([5]; cGAMP (1 μM) + compound 10 μM): 18.3%; Percent release IP-10 (Absolute) ([5]; cGAMP (1 μM) + compound […]): 7.0%
> 30	0.09	7.78	COc1cc2ncnc(N3CC(CCNS(C)(=O)=O)C3)c2cc1OC [Compound 1.6, N-(2-[1-(6,7-dimethoxyquinazolin-4-yl)azetidin-3-yl]ethyl)methanesulfonamide]	–
> 30	0.07	5.73	Cc1ccn2ncnc(N3CC(CCNS(N)(=O)=O)C3)c12 [Compound 1.20, 4-(3-(2-sulfamoylaminoethyl)azetidine-1-yl)-5-methylpyrrolo[1,2-f][1,2,4]triazine]	–
> 30	0.092	1.88	COc1cc2nc(-c3ccccc3)nc(N3CC(CCNS(N)(=O)=O)C3)c2cc1OC [Compound 1.21, 4-(3-(2-sulfamoylaminoethyl)azetidine-1-yl)-6,7-dimethoxy-2-phenylquinazoline]	–
> 30	0.029	7.87	COc1cc2ncnc(N3CC(CCN(C4CC4)S(N)(=O)=O)C3)c2cc1OC [Compound 1.23, 4-(3-(2-((sulfamoyl)(cyclopropyl)amino)ethyl)azetidine-1-yl)-6,7-dimethoxyquinazoline]	–
–	0.006	< 0.12	COc1ccc2c(N3CC4(CC(NS(N)(=O)=O)C4)C3)ncnc2c1 [Compound 1.26, 4-(6-sulfamoylamino-2-azaspiro[3.3]heptan-2-yl)-7-methoxyquinazoline]	–
–	0.043	< 0.1	COc1cc2nncc(N3CC(CCNS(N)(=O)=O)C3)c2cc1OC [Compound 1.27, 4-(3-(2-sulfamoylaminoethyl)azetidine-1-yl)-6,7-dimethoxycinnoline]	–
> 30	0.026	9.56	COc1cc2ncnc(N3CC(CC(=O)NO)C3)c2cc1OC [Compound 1.28, 2-(1-(6,7-dimethoxyquinazolin-4-yl)azetidin-3-yl)-N-hydroxyacetamide]	–
> 30	0.019	< 0.12	COc1cc2ncnc(N3CC(CCB(O)O)C3)c2cc1OC [Compound 1.30, 2-(1-(6,7-dimethoxyquinazolin-4-yl)azetidin-3-yl)ethylboronic acid]	–
–	0.099	> 30	COc1cc2nc(-c3ccncc3)nc(N3CC(CCNS(N)(=O)=O)C3)c2cc1OC [Compound 1.35, 4-(3-(2-sulfamoylaminoethyl)azetidine-1-yl)-6,7-dimethoxy-2-(pyridin-4-yl)quinazoline]	–
> 30	–	3.26	COc1cc2ncnc(N3CC(CCCS(N)(=O)=O)C3)c2cc1OC [Compound 1.39, 3-(1-(6,7-dimethoxyquinazolin-4-yl)azetidin-3-yl)propane-1-sulfonamide]	–
–	0.019	0.912	COc1cc2ncnc(N3CC4(CC(N(C)S(N)(=O)=O)C4)C3)c2cc1OC [Compound 1.46, N-[2-(6,7-di-methoxyquinazoline-4-yl)-2-azaspiro[3.3]hept-6-yl]-N-methylsulfuric diamide]	–
–	0.144	> 30	COc1cc2ncnc(N3CC4(CC(N(C5CC5)S(N)(=O)=O)C4)C3)c2cc1OC [Compound 1.48, N-[2-(6,7-di-methoxyquinazoline-4-yl)-2-azaspiro[3.3]hept-6-yl]-N-cyclopropylsulfuric diamide]	–
–	> 1.98	> 30	COc1cc2ncnc(N3CC4(CC(NS(C)(=O)=O)C4)C3)c2cc1OC [Compound 1.49, N-(2-(6,7-dimethoxyquinazolin-4-yl)-2-azaspiro[3.3]heptan-6-yl)methanesulfonamide]	–
–	1.48	> 30	COc1cc(OC)c2ncnc(N3CC(CCNS(N)(=O)=O)C3)c2c1 [Compound 1.50, 4-(3-(2-sulfamoylaminoethyl)azetidine-1-yl)-6,8-di-methoxyquinazoline]	–
–	0.015	> 30	COc1cc2ncnc(N3CC(CCC(=O)NO)C3)c2cc1OC [Compound 1.51, 3-(1-(6,7-dimethoxyquinazolin-4-yl)azetidin-3-yl)-N-hydroxypropanamide]	–
–	0.043	> 18.6	COc1cc2ncnc(N3CC(CCS(N)(=O)=O)C3)c2cc1OC [Compound 1.52, 2-(1-(6,7-dimethoxyquinazolin-4-yl)azetidin-3-yl)ethanesulfonamide]	–
–	0.006	< 0.12	COc1cc2ncnc(N3CC(CCNS(N)(=O)=O)C3)c2cc1F [Compound 1.66, 4-(3-(2-sulfamoylaminoethyl)azetidine-1-yl)-6-fluoro-7-methoxy quinazoline]	–
2.82	0.024	0.304	COc1cc2ncnc(N3CC(C(C)CNS(N)(=O)=O)C3)c2cc1OC (stereo not shown) [Compound 1.70, 4-3-(3-sulfamoylaminopropan-2-yl)azetidin-1-yl-6,7-dimethoxyquinazoline]	–
> 30	> 3	–	Cc1nc(N2CC(CCNS(N)(=O)=O)C2)c2c(C)ccn2n1 [Compound 1.71, 4-(3-(2-sulfamoylaminoethyl)azetidine-1-yl)-2,5-di-methylpyrrolo[1,2-f][1,2,4]triazine]	–
